Results on two molecules are retold here after US9739784B2, “Giant obscurins and uses thereof in cancer prognosis and therapy” (UNIVERSITY OF MARYLAND, BA, priority 2013, dated 2017).

The test concerns obscurin-KD MCF10A cells. Nature of the test: Sensitivity of obscurin-KD MCF10A cells to chemotherapeutic drugs (cell viability). The note with it: compared to control cells. Type of test: cell-based, human. The source says: Moreover, loss of giant obscurins results in major cytoskeletal alterations leading to increased cell growth, motility and invasion. […] Thus, breast cancer cells may have different responses to cytoskeletal-targeting chemotherapies depending on the relative expression of giant obscurins.

For `COc1cc([C@@H]2c3cc4c(cc3[C@@H](O[C@@H]3O[C@@H]5CO[C@@H](C)O[C@H]5[C@H](O)[C@H]3O)[C@H]3COC(=O)[C@H]23)OCO4)cc(OC)c1O` [etoposide], the “sensitivity of obscurin-depleted MCF10A cells to the drug” value is on record as “reduced sensitivity”.
In the case of `CC(=O)O[C@H]1C(=O)[C@@]2(C)[C@H]([C@H](OC(=O)c3ccccc3)[C@]3(O)C[C@H](OC(=O)[C@H](O)[C@@H](NC(=O)c4ccccc4)c4ccccc4)C(C)=C1C3(C)C)[C@]1(OC(C)=O)CO[C@@H]1C[C@@H]2O` [paclitaxel] it was “reduced sensitivity”.
